Data as given in ChEMBL document CHEMBL5252627, “Antiangiogenic Pterocarpan and Flavonoid Constituents of Erythrina lysistemon” (J Nat Prod, 2023).

Assays:
[1] = Antiproliferative activity against human HREC cells assessed as cell growth inhibition incubated for 44 hrs by AlamarBlue reagent based fluorescence assay; format: functional
[2] = Cytotoxicity against human ARPE-19 cells assessed as cell growth inhibition incubated for 44 hrs by AlamarBlue reagent based fluorescence assay; format: toxicity
[3] = tested on: HREC; test: Antiangiogenic activity against human HREC cells assessed as inhibition of invitro tubule formation by measuring tubule length at 0.05 to 50 uM and measured after 8 hrs by Matrigel based bright-field microscopy; format: functional, cell-based; conditions: dose 0.05-50 µM

## COc1ccc(CC2COc3cc(OC)c(OC)c(OC)c3C2=O)cc1OC(=O)[C@H](Cc1ccccc1)NC(=O)OC(C)(C)C (some centres not stated)
[1]
  GI50: 0.018 µM
[2]
  GI50 at 44 h: > 100 µM

## CC(C)=CCc1c(O)ccc2c1OC[C@H]1c3ccc4c(c3O[C@@H]21)CC(O)C(C)(C)O4 (some centres not stated)
[3]
  Activity: Dose-Dependent Effect
[1]
  GI50: 4.67 µM
[2]
  GI50 at 44 h: > 100 µM

## CC1(C)C=Cc2c(ccc3c2O[C@H]2c4ccc5c(c4OC[C@@H]32)C=CC(C)(C)O5)O1
[1]
  GI50: > 100 µM
[2]
  GI50 at 44 h: > 100 µM

## CC(C)=CCc1cc2c(c(CC=C(C)C)c1O)OC[C@@H](c1ccc(O)cc1O)C2=O
[3]
  Activity: Dose-Dependent Effect
[1]
  GI50: 5.85 µM
[2]
  GI50 at 44 h: > 100 µM

## CC(C)=CCc1cc2c(c(CC=C(C)C)c1O)OC[C@@H](c1ccc(O)cc1O)C2
[3]
  Activity: Dose-Dependent Effect
[1]
  GI50: 3.65 µM
[2]
  GI50 at 44 h: > 100 µM

## CC(C)=CCc1c(O)ccc2c1O[C@H]1c3ccc(O)c(CC=C(C)C)c3OC[C@@H]21 [ERYBRAEDIN A]
[3]
  Activity: Dose-Dependent Effect
[1]
  GI50: 4.21 µM
[2]
  GI50 at 44 h: > 100 µM

## CC(C)=CCc1cc2c(cc1O)OC[C@H]1c3ccc(O)c(CC=C(C)C)c3O[C@@H]21 [ERYBRAEDIN C]
[3]
  Activity: Dose-Dependent Effect
[1]
  GI50: 2.57 µM
[2]
  GI50 at 44 h: > 100 µM

## CC1(C)C=Cc2c(ccc3c2O[C@H]2c4ccc(O)cc4OC[C@@H]32)O1 [PHASEOLIN]
[3]
  Activity: Dose-Dependent Effect
[1]
  GI50: 4.65 µM
[2]
  GI50 at 44 h: > 100 µM

## CC(C)=CCc1c(O)ccc2c1O[C@H]1c3ccc(O)cc3OC[C@@H]21 [PHASEOLLIDIN]
[1]
  GI50: > 100 µM
[2]
  GI50 at 44 h: > 100 µM

## COc1ccc2c(c1CC=C(C)C)O[C@H]1c3ccc(O)cc3OC[C@@H]21 [SANDWICENSIN]
[3]
  Activity: Dose-Dependent Effect
[1]
  GI50: 5.91 µM
[2]
  GI50 at 44 h: > 100 µM
